By IC50 is commonly meant the concentration at which inhibition is half-maximal.

One assay has as its target T1, RORc ligand binding domain (Homo sapiens, UniProt P51449).
T1 construct: host or cells: E. coli
T1 sequence (P51449 269-508 limits assumed): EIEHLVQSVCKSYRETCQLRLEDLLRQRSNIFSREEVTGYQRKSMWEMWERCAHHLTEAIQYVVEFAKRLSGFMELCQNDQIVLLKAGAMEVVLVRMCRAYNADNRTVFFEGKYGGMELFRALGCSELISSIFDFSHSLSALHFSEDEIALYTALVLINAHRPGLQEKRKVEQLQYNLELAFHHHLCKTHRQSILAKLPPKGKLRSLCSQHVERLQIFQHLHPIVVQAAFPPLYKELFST
Briefly: In Vitro RORc Ligand Binding Assay (25-[3H]hydroxycholesterol radioligand filtration). Conditions: In Vitro RORc Ligand Binding Assay; Table 4; read-out: RORc IC50.
Turning to `CC(=O)N1CCN(c2ccc(CN3[C@@H](C)CC(c4ccccc4)S3(=O)=O)c(F)c2)CC1` (single isomer, unassigned) [Example 64], the IC50 is 709 nM. Same read-out and setting: as for `CC[C@H]1CCC(c2ccccc2)S(=O)(=O)N1Cc1ccc(NC2CCN(S(C)(=O)=O)CC2)cc1F` (single isomer, unassigned) [Example 239], the figure is 3 nM; as for `CC(=O)N1CCN(c2ccc(CN3[C@@H](C)CCC(c4ccccc4)S3(=O)=O)cc2C#N)CC1` (single isomer, unassigned) [Example 114], 201 nM. The same measure, in the same setting: as for `C[C@H]1CCC(c2ccccc2)S(=O)(=O)N1Cc1ccc(C(=O)N2CCN(C)C(=O)C2)cc1` (stereo partly drawn) [Example 363, 1-Methyl-4-[4-((3S)-methyl-1,1-dioxo-6-phenyl-[1,2]thiazinan-2-ylmethyl)-benzoyl]-piperazin-2-one], the figure is 2430 nM. Regarding `CC(=O)N1CCN(c2ccc(CN3C[C@@H](C)OCC(c4ccccc4)S3(=O)=O)c(F)c2)CC1` (single isomer, unassigned) [Example 31], the IC50 turned out to be 717 nM.

Take `COc1ccccc1C1CC[C@H](C)N(Cc2ccc(N3CCN(C(C)=O)CC3)cc2F)S1(=O)=O` (single isomer, unassigned) [Example 223]: the IC50 is 135 nM.

Take `C[C@H]1CCC(c2ccccc2)S(=O)(=O)N1Cc1ccc(C(=O)N2CCC(CO)CC2)cc1` (stereo partly drawn) [Example 278, (4-Hydroxymethyl-piperidin-1-yl)-[4-((3S)-methyl-1,1-dioxo-6-phenyl-[1,2]thiazinan-2-ylmethyl)-phenyl]-methanone]: the IC50 was 1100 nM.

Consider `CC(=O)N1CCN(c2ccc(CN3C[C@H](C)OCC(c4ccccc4)S3(=O)=O)c(F)c2)CC1` (single isomer, unassigned) [Example 29], for which the IC50 turned out to be 24 nM.

As to `C[C@H]1CCC(c2ccccc2)S(=O)(=O)N1Cc1ccc(N2CCC(c3nccn3C)CC2)cc1F` (single isomer, unassigned) [Example 139], the IC50 was 1390 nM. Take `CC(=O)N1CCN(c2ccc(CN3[C@H](C)CCC(c4ccccc4)S3(=O)=O)c(F)c2)CC1` (single isomer, unassigned) [Example 20]: the IC50 was found to be 26 nM. In the case of `CS(=O)(=O)N1CCC(Nc2ccc(CN3CCCCC(c4ccccc4)S3(=O)=O)c(F)c2)CC1` (single isomer, unassigned) [Example 347, [4-(1,1-Dioxo-7-phenyl-[1,2]thiazepan-2-ylmethyl)-3-fluoro-phenyl]-(1-methanesulfonyl-piperidin-4-yl)-amine], the IC50 was found to be 5 nM. On to `C[C@H]1CCC(c2ccccc2)S(=O)(=O)N1Cc1ccc(N2CC(C3CCOCC3)C2)cc1F` (single isomer, unassigned) [Example 108], for which the IC50 turned out to be 33 nM. On the same count and under the same terms, the figure for `CC(=O)N1CCN(c2ccc(CN3CCCCC(c4ccccc4)S3(=O)=O)c(F)c2)[C@@H](C)C1` (single isomer, unassigned) [Example 335, 1-{4-[4-(1,1-Dioxo-7-phenyl-[1,2]thiazepan-2-ylmethyl)-3-fluoro-phenyl]-3-methyl-piperazin-1-yl}-ethanone] is 8 nM.

With `C[C@H]1CCC(c2ccccc2)S(=O)(=O)N1Cc1ccc(C(=O)N[C@@H]2CCN(S(C)(=O)=O)C2)cc1` (stereo partly drawn) [Example 388, N-((R)-1-Methanesulfonyl-pyrrolidin-3-yl)-4-((3S)-methyl-1,1-dioxo-6-phenyl-[1,2]thiazinan-2-ylmethyl)-benzamide], the IC50 is 3520 nM. Same read-out and setting: as for `C[C@H]1CCC(c2ccccc2)S(=O)(=O)N1Cc1ccc(N2CC3(CCOCC3)C2)cc1F` (single isomer, unassigned) [Example 85], the figure is 89 nM. Consider `C[C@H]1CCC(c2ccccc2)S(=O)(=O)N1Cc1ccc(N2CCn3cnnc3C2)cc1F` (single isomer, unassigned) [Example 149], for which the IC50 was 1460 nM. Still for that read-out and setting: the figure for `C[C@H]1CCC(c2ccccc2)S(=O)(=O)N1Cc1ccc(C(=O)NC2CCS(=O)(=O)C2)cc1` (stereo partly drawn) [Example 389, N-(1,1-Dioxo-tetrahydro-6-thiophen-3-yl)-4-((3S)-methyl-1,1-dioxo-6-phenyl-[1,2]thiazinan-2-ylmethyl)-benzamide] is 3220 nM.

As for `C[C@H](O)C(=O)N1CCN(c2ccc(CN3CCCCC(c4ccccc4)S3(=O)=O)cc2)CC1` (single isomer, unassigned) [Example 311, 1-{4-[4-(1,1-Dioxo-7-phenyl-[1,2]thiazepan-2-ylmethyl)-phenyl]-piperazin-1-yl}-2-hydroxy-propan-1-one], the IC50 came out at 898 nM. `C[C@@H](O)C(=O)N1CCN(c2ccc(CN3CCCCC(c4ccccc4)S3(=O)=O)cc2)CC1` (single isomer, unassigned) [Example 315, 1-{4-[4-(1,1-Dioxo-7-phenyl-[1,2]thiazepan-2-ylmethyl)-phenyl]-piperazin-1-yl}-2-hydroxy-propan-1-one]: the IC50 was found to be 321 nM. Same read-out and setting: as for `CC(=O)N1CCN(c2ccc(CN3[C@@H](C)CCC(c4ccccc4)S3(=O)=O)cc2Cl)CC1` (single isomer, unassigned) [Example 164], the figure is 115 nM; as for `CC(=O)N1CCN(c2ccc(CN3CC(C)CC(c4ccccc4)S3(=O)=O)c(F)c2)CC1` (single isomer, unassigned) [Example 118, 1-{4-[3-Fluoro-4-(4-methyl-1,1-dioxo-6-phenyl-[1,2]thiazinan-2-ylmethyl)-phenyl]-piperazin-1-yl}-ethanone], 20 nM.

Staying with this assay, now noted: read-out: RORc IC50.
`C[C@H]1CCC(c2ccccc2)S(=O)(=O)N1Cc1ccc(N2CCn3c(cnc3C#N)C2)cc1F` (stereo partly shown): the IC50 stood at 182 nM.

Turning to `C[C@H]1CCC(c2ccccc2)S(=O)(=O)N1Cc1ccc(NCC2CCOCC2)cc1F` (stereo partly drawn) [Example 445, [3-Fluoro-4-((3S)-methyl-1,1-dioxo-6-phenyl-[1,2]thiazinan-2-ylmethyl)-phenyl]-(tetrahydro-pyran-4-ylmethyl)-amine], the IC50 came out at 25 nM. Take `C[C@H]1CCC(c2ccccc2)S(=O)(=O)N1Cc1ccc(OCCN2CCCC2=O)cc1` (stereo partly drawn) [Example 439, 1-{2-[4-((3S)-Methyl-1,1-dioxo-6-phenyl-[1,2]thiazinan-2-ylmethyl)-phenoxy]-ethyl}-pyrrolidin-2-one]: the IC50 turned out to be 325 nM. Still for that read-out and setting: as for `C[C@H]1CCC(c2ccccc2)S(=O)(=O)N1Cc1ccc(N2CC3(CC(n4cnnc4)C3)C2)cc1F` (stereo partly drawn) [Example 425, 2-[3-Fluoro-4-((3S)-methyl-1,1-dioxo-6-phenyl-[1,2]thiazinan-2-ylmethyl)-phenyl]-6-[1,2,4]triazol-4-yl-2-aza-spiro[3.3]heptane], the figure is 1010 nM; as for `C[C@H]1CCC(c2ccccc2)S(=O)(=O)N1Cc1ccc(N2CCC(c3cn[nH]c3)CC2)cc1` (stereo partly drawn) [Example 414, (3S)-Methyl-6-phenyl-2-{4-[4-(1H-pyrazol-4-yl)-piperidin-1-yl]-benzyl}-[1,2]thiazinane 1,1-dioxide], 6 nM; as for `C[C@H]1CCC(c2ccccc2)S(=O)(=O)N1Cc1ccc(NC(=O)C2CCN(S(C)(=O)=O)CC2)cc1F` (stereo partly drawn) [Example 459, 1-Methanesulfonyl-piperidine-4-carboxylic acid [3-fluoro-4-((3S)-methyl-1,1-dioxo-6-phenyl-[1,2]thiazinan-2-ylmethyl)-phenyl]-amide], 74 nM. As for `C[C@H]1CCC(c2ccccc2)S(=O)(=O)N1Cc1ccc(C(=O)NC2CCC(O)C2)cc1` (single isomer, unassigned) [Example 410], the IC50 came to 6500 nM.

Values taken from patent publication US9115101B2 (Genentech, Inc., priority 2012, dated 2015).
